Measured values reported in patent publication US11098033B2, “Ku inhibitors and their use” (INDIANA UNIVERSITY RESEARCH AND TECHNOLOGY CORPORATION, priority 2016, dated 2021).
Several values for one entry are separate records, joined by “and”; a condition that tells them apart may be missing. Equal values may be shown once.

Target: T1, Recombinant human Ku heterodimer (Homo sapiens, UniProt P12956+P13010)
T1 construct: made in house; host or cells: insect cells infected with recombinant baculovirus
T1 sequence (P12956 whole entry): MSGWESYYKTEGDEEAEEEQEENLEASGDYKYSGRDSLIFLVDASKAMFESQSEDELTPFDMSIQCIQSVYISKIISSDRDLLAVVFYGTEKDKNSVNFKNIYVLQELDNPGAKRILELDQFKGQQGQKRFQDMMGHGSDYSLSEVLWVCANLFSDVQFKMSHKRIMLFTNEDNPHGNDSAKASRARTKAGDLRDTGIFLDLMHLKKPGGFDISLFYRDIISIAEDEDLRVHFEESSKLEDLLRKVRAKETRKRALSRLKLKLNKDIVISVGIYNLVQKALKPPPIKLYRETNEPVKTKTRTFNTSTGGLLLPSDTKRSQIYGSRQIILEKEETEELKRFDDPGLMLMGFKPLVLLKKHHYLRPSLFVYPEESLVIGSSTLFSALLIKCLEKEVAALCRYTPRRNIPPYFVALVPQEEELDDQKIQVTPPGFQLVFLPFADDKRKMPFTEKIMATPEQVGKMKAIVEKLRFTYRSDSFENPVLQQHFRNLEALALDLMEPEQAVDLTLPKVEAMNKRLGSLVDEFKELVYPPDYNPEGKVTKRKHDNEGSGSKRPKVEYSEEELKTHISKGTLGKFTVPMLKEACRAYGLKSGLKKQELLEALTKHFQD
T1 sequence (P13010 whole entry): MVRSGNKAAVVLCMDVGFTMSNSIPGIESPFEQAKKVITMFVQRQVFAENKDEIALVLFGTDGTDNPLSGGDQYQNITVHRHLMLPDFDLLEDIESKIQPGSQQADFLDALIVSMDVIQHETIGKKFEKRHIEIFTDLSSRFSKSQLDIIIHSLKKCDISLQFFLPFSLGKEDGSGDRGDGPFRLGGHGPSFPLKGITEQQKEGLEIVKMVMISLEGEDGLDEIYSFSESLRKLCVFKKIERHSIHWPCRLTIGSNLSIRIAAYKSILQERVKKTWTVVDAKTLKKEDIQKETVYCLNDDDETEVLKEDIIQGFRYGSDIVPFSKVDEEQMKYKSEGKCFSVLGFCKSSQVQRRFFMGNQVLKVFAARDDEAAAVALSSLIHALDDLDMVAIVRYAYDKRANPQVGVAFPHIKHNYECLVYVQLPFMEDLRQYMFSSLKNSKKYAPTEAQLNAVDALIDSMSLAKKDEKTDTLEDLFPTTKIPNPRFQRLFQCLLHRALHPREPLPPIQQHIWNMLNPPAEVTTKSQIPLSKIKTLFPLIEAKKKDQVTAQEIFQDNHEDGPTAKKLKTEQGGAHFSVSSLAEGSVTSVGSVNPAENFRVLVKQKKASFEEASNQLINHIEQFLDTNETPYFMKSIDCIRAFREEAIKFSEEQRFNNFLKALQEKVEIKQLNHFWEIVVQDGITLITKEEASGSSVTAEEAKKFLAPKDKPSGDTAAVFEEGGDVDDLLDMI
Test: Ku-DNA binding assay
Conditions: IC50 (concentration that inhibits 50% of the binding activity), titration into Ku-DNA binding reactions (FIG. 1, FIG. 2)
Source text: Ku is a DNA end-binding protein that is essential for the repair of DNA double strand breaks via the NHEJ pathway. The mechanism of DNA binding by Ku is via a toroid structure that encircles double-stranded DNA from a terminus.

Molecule | IC50 [µM]
CCCCOC(=O)c1cc(-c2ccc(/C=C3\C(=O)N(c4ccc(Cl)c(C(=O)O)c4)N=C3C)o2)ccc1Cl [compound 0530, reference compound] | ~5
CC1=NN(c2cccc(C(=O)O)c2)C(=O)/C1=C\c1ccc(-c2ccc(Cl)c(C(=O)O)c2)o1 [X80, (Z)-5-(5-((1-(3-Carboxyphenyl)-3-methyl-5-oxo-1H-pyrazol-4(5H)-ylidene)methyl)furan-2-yl)-2-chlorobenzoic acid] | ~75

Same assay, conditions: Table 1, purchased second generation inhibitors; several values in a cell = separate determinations; read-out: IC50

Molecule | IC50
CCCCOC(=O)c1cc(-c2ccc(/C=C3\C(=O)N(c4ccc(Cl)c(C(=O)O)c4)N=C3C)o2)ccc1Cl [compound 0530, reference compound] | 5.6 µM
CC1=NN(c2cccc(C(=O)O)c2)C(=O)/C1=C\c1ccc(-c2cccc(C(=O)O)c2)o1 [compound 0803, reference compound] | 65 µM
CC1=NN(c2cccc(C(=O)O)c2)C(=O)/C1=C\c1ccc(-c2ccc(Cl)c(C(=O)OCc3ccccc3Cl)c2)o1 [compound 2249, reference compound] | 2.9 µM
COC(=O)c1cccc(-c2ccc(/C=C3\C(=O)N(c4cccc(C(=O)O)c4)N=C3C(F)(F)F)o2)c1 [compound 2777, reference compound] | 40 µM and 16 µM
C=CCOC(=O)c1cccc(-c2ccc(/C=C3\C(=O)N(c4ccc(Cl)c(C(=O)O)c4)N=C3C)o2)c1 [compound 2922, reference compound] | 6.2 µM and 5 µM
CC1=NN(c2cccc(C(=O)O)c2)C(=O)/C1=C\c1ccc(-c2cc([N+](=O)[O-])ccc2O)o1 [compound 1564, reference compound] | 21 µM and 7 µM
CC1=NN(c2ccc(Cl)c(C(=O)O)c2)C(=O)/C1=C\c1ccc(-c2ccc3c(c2)C(=O)OC3)o1 [compound 4770, reference compound] | 21.8 µM
CC1=NN(c2cccc(C(=O)O)c2)C(=O)/C1=C\c1ccc(-c2cc([N+](=O)[O-])ccc2C)o1 [compound 0302, reference compound] | 13 µM and 7 µM and 9 µM
CC1=NN(c2ccc(Cl)c(C(=O)O)c2)C(=O)/C1=C\c1ccc(-c2ccc([N+](=O)[O-])cc2Br)o1 [compound 0277, reference compound] | 21 µM and 19 µM
CC1=NN(c2cccc(C(=O)O)c2)C(=O)/C1=C\c1ccc(-c2ccc3c(c2)C(=O)OC3)o1 [compound 7997, reference compound] | 32 µM and 16 µM and 40 µM
CC1=NN(c2cccc(C(=O)O)c2)C(=O)/C1=C\c1ccc(-c2cccc(C(=O)OC(C)C)c2)o1 [compound 3125, reference compound] | 11 µM and 3.5 µM
CCCOC(=O)c1cc(-c2ccc(/C=C3\C(=O)N(c4cccc(C(=O)O)c4)N=C3C)o2)ccc1Cl [compound 2727, reference compound] | 7.6 µM and 5.7 µM

Same assay, conditions: Table 2, synthesized derivatives; several values in a cell = separate determinations; read-out: IC50

Molecule | IC50
COc1cccc(NC(=O)c2cc(-c3ccc(CC4C(=O)N(c5cccc(-c6nnn[nH]6)c5)N=C4C)o3)ccc2Cl)c1 (stereo not drawn) [NG-03-205, 5-(5-((1-(3-(1H-Tetrazol-5-yl)phenyl)-3-methyl-5-oxo-4,5-dihydro-1H-pyrazol-4-yl)methyl)furan-2-yl)-2-chloro-N-(3-methoxyphenyl)benzamide] | 13 µM
CC1=NN(c2cccc(C(=O)O)c2)C(=O)C1Cc1ccc(-c2ccc(Cl)c(C(=O)NCc3ccc(F)cc3)c2)o1 (stereo not drawn) [NG-01-65, 3-(4-((5-(4-Chloro-3-((4-fluorobenzyl)carbamoyl)phenyl)furan-2-yl)methyl)-3-methyl-5-oxo-4,5-dihydro-1H-pyrazol-1-yl)benzoic acid] | 8 µM
COc1cccc(NC(=O)c2ccc(/C=C3\C(=O)N(c4cccc(C(=O)O)c4)N=C3C)o2)c1 [NG-02-162/ NG-02-162C, (Z)-3-(4-((5-((3-methoxyphenyl)carbamoyl)furan-2-yl)methylene)-3-methyl-5-oxo-4,5-dihydro-1H-pyrazol-1-yl)benzoic acid] | 8 µM and 11 µM
COc1cccc(NC(=O)c2cc(-c3ccc(/C=C4\C(=O)N(c5cccc(-c6nnn[nH]6)c5)N=C4C)o3)ccc2Cl)c1 [NG-03-201, (Z)-5-(5-((1-(3-(1H-Tetrazol-5-yl)phenyl)-3-methyl-5-oxo-1,5-dihydro-4H-pyrazol-4-ylidene)methyl)furan-2-yl)-2-chloro-N-(3-methoxyphenyl)benzamide] | 4.5 µM and 6.5 µM
COc1ccc(NC(=O)c2cc(-c3ccc(CC4C(=O)N(c5cccc(C(=O)O)c5)N=C4C)o3)ccc2Cl)cc1OC (stereo not drawn) [NG-03-206, 3-(4-((5-(4-Chloro-3-((3,4-dimethoxyphenyl)carbamoyl)phenyl)furan-2-yl)methyl)-3-methyl-5-oxo-4,5-dihydro-1H-pyrazol-1-yl)benzoic acid] | 7.5 µM
CC1=NN(c2cccc(C(=O)O)c2)C(=O)/C1=C\c1ccc(-c2ccc(Cl)c(C(=O)O)c2)s1 [NG-03-224, (Z)-5-(5-((1-(3-Carboxyphenyl)-3-methyl-5-oxo-1,5-dihydro-4H-pyrazol-4-ylidene)methyl)thiophen-2-yl)-2-chlorobenzoic acid] | 15 µM
COc1ccc(NC(=O)c2cc(-c3ccc(/C=C4\C(=O)N(c5cccc(C(=O)O)c5)N=C4C)o3)ccc2Cl)cc1OC [NG-03-189, (Z)-3-(4-((5-(4-chloro-3-((3,4-dimethoxyphenyl)carbamoyl)phenyl)furan-2-yl)methylene)-3-methyl-5-oxo-4,5-dihydro-1H-pyrazol-1-yl)benzoic acid] | 14 µM
CC1=NN(c2cccc(C(=O)O)c2)C(=O)C1Cc1ccc(-c2ccc(Cl)c(C(=O)NCC3CC3)c2)s1 (stereo not drawn) [NG-03-231, 3-(4-((5-(4-Chloro-3-((cyclopropylmethyl)carbamoyl)phenyl)thiophen-2-yl)methyl)-3-methyl-5-oxo-4,5-dihydro-1H-pyrazol-1-yl)benzoic acid] | 12 µM
CC1=NN(c2ccc(C(=O)O)cc2)C(=O)/C1=C\c1ccc(-c2ccc(Cl)c(C(=O)O)c2)s1 [NG-03-234, (Z)-5-(5-((1-(4-Carboxyphenyl)-3-methyl-5-oxo-1,5-dihydro-4H-pyrazol-4-ylidene)methyl)thiophen-2-yl)-2-chlorobenzoic acid] | 6 µM
(Z)-2-chloro-5-(54(1-(3-cyanophenyl)-3-methyl-5-oxo-1,5-dihydro-4H-pyrazol-4-ylidene)methyl)furan-2-yl)-N-(3-methoxyphenyl)benzamide [NG-03-193] | 25 µM
COc1cccc(NC(=O)c2cc(-c3ccc(/C=C4\C(=O)N(c5cccc(C(=O)O)c5)N=C4C)s3)ccc2Cl)c1 [NG-03-203, (Z)-3-(4-((5-(4-chloro-3-((3-methoxyphenyl)carbamoyl)phenyl)thiophen-2-yl)methylene)-3-methyl-5-oxo-4,5-dihydro-1H-pyrazol-1-yl)benzoic acid] | 18 µM
COc1cccc(NC(=O)c2ccc(CC3C(=O)N(c4cccc(C(=O)O)c4)N=C3C)o2)c1 (stereo not drawn) [NG-02-165, 3-(4-((5-((3-Methoxyphenyl)carbamoyl)furan-2-yl)methyl)-3-methyl-5-oxo-4,5-dihydro-1H-pyrazol-1-yl)benzoic acid] | 11 µM
COc1cccc(NC(=O)c2cc(-c3ccc(CC4C(=O)N(c5cccc(C(=O)O)c5)N=C4C)s3)ccc2Cl)c1 (stereo not drawn) [NG-03-207, 3-(4-((5-(4-chloro-3-((3-Methoxyphenyl)carbamoyl)phenyl)thiophen-2-yl)methyl)-3-methyl-5-oxo-4,5-dihydro-1H-pyrazol-1-yl)benzoic acid] | 7 µM
CC1=NN(c2ccc(S(N)(=O)=O)cc2)C(=O)/C1=C\c1ccc(-c2ccc(Cl)c(C(=O)NCC3CC3)c2)o1 [NG-03-212, (Z)-2-chloro-N-(cyclopropylmethyl)-5-(5-((3-methyl-5-oxo-1-(4-sulfamoylphenyl)-1,5-dihydro-4H-pyrazol-4-ylidene)methyl)furan-2-yl)benzamide] | 30 µM
COc1cccc(NC(=O)c2cc(-c3ccc(/C=C4\C(=O)N(c5ccc(S(N)(=O)=O)cc5)N=C4C)o3)ccc2Cl)c1 [NG-03-196, (Z)-2-chloro-N-(3-methoxyphenyl)-5-(5-((3-methyl-5-oxo-1-(4-sulfamoylphenyl)-1,5-dihydro-4H-pyrazol-4-ylidene)methyl)furan-2-yl)benzamide] | 20 µM
CCOC(=O)c1cccc(N2N=C(C)C(Cc3ccc(-c4ccc(Cl)c(C(=O)Nc5cccc(OC)c5)c4)o3)C2=O)c1 (stereo not drawn) [NG-02-131, Ethyl 3-(4-((5-(4-chloro-3-((3-methoxyphenyl)carbamoyl)phenyl)furan-2-yl)methyl)-3-methyl-5-oxo-4,5-dihydro-1H-pyrazol-1-yl)benzoate] | 3 µM
COc1cccc(NC(=O)c2cc(-c3ccc(CC4C(=O)N(c5ccc(C(=O)O)cc5)N=C4C)s3)ccc2Cl)c1 (stereo not drawn) [NG-03-238, 4-(4-((5-(4-Chloro-3-((3-methoxyphenyl)carbamoyl)phenyl)thiophen-2-yl)methyl)-3-methyl-5-oxo-4,5-dihydro-1H-pyrazol-1-yl)benzoic acid] | 14 µM
CCOC(=O)c1cccc(N2N=C(C)/C(=C/c3ccc(-c4ccc(Cl)c(C(=O)Nc5cccc(OC)c5)c4)o3)C2=O)c1 [NG-02-130, (Z)-Ethyl 3-(4-((5-(4-chloro-3-((3-methoxyphenyl)carbamoyl)phenyl)furan-2-yl)methylene)-3-methyl-5-oxo-4,5-dihydro-1H-pyrazol-1-yl)benzoate] | 3 µM

Tested on: H460 non-small cell lung cancer cells, EMX1 locus
Test: Crispr/Cas9 mediated gene insertion at the EMX1 locus
Type: cell-based
Conditions: +Inhibitor (20 uM), accurate gene insertion at EMX1 locus; −Inhibitor 14%
Source text: To assess the effect of Ku inhibitors on genome engineering efficiency we designed an assay to quantify the recombination efficiency of a Crispr/Cas9 mediated gene insertion event. A donor insert of 2.2 kbp encoding puromycin resistance and a GFP gene was flanked by 800 bp homology arms directing the insert to the EMX1 locus. A guide RNA directing the Cas9 nuclease to the EMX1 gene was purchased and co-transfected with the donor construct and Cas9 expressing plasmid in H460 non-small cell lung cancer cells that were either treated with vehicle or 20 uM 205. 24 hours later, cells were placed under selection with puromycin for 5 days and plated in 96-well plates for single cell cloning. Clones were expanded, genomic DNA isolated and location specific PCR analysis was performed to assess accurate gene insertion at the EMX1 locus.

Molecule | Efficiency [%]
COc1cccc(NC(=O)c2cc(-c3ccc(CC4C(=O)N(c5cccc(-c6nnn[nH]6)c5)N=C4C)o3)ccc2Cl)c1 (stereo not drawn) [NG-03-205, 5-(5-((1-(3-(1H-Tetrazol-5-yl)phenyl)-3-methyl-5-oxo-4,5-dihydro-1H-pyrazol-4-yl)methyl)furan-2-yl)-2-chloro-N-(3-methoxyphenyl)benzamide] | 80

Same assay, conditions: +Inhibitor (20 uM), clones positive in location specific PCR; −Inhibitor 4

Molecule | In/Out+
COc1cccc(NC(=O)c2cc(-c3ccc(CC4C(=O)N(c5cccc(-c6nnn[nH]6)c5)N=C4C)o3)ccc2Cl)c1 (stereo not drawn) [NG-03-205, 5-(5-((1-(3-(1H-Tetrazol-5-yl)phenyl)-3-methyl-5-oxo-4,5-dihydro-1H-pyrazol-4-yl)methyl)furan-2-yl)-2-chloro-N-(3-methoxyphenyl)benzamide] | 4

Same assay, conditions: +Inhibitor (20 uM), puromycin selection 5 days, single cell cloning; −Inhibitor 28

Molecule | Clones
COc1cccc(NC(=O)c2cc(-c3ccc(CC4C(=O)N(c5cccc(-c6nnn[nH]6)c5)N=C4C)o3)ccc2Cl)c1 (stereo not drawn) [NG-03-205, 5-(5-((1-(3-(1H-Tetrazol-5-yl)phenyl)-3-methyl-5-oxo-4,5-dihydro-1H-pyrazol-4-yl)methyl)furan-2-yl)-2-chloro-N-(3-methoxyphenyl)benzamide] | 5

Same assay, conditions: H460 cells, 20 uM, versus vehicle

Molecule | increase in precise genome insertion efficiency
COc1cccc(NC(=O)c2cc(-c3ccc(CC4C(=O)N(c5cccc(-c6nnn[nH]6)c5)N=C4C)o3)ccc2Cl)c1 (stereo not drawn) [NG-03-205, 5-(5-((1-(3-(1H-Tetrazol-5-yl)phenyl)-3-methyl-5-oxo-4,5-dihydro-1H-pyrazol-4-yl)methyl)furan-2-yl)-2-chloro-N-(3-methoxyphenyl)benzamide] | greater than 6 fold
